Assay results from paper PMC9030254, “Target Hopping from Protein Kinases to PXR: Identification of Small-Molecule Protein Kinase Inhibitors as Selective Modulators of Pregnane X Receptor from TüKIC Library” (Cells, 2022).

Columns and labels:
Assay in all cases: Kinase profiling
Type in all cases: biochemical
EPHA8 = target: T1, EPHA8 (Homo sapiens, UniProt P29322)
T1 construct: purchased ProQinase (Freiburg, Germany)
T1 sequence (P29322 28-1005): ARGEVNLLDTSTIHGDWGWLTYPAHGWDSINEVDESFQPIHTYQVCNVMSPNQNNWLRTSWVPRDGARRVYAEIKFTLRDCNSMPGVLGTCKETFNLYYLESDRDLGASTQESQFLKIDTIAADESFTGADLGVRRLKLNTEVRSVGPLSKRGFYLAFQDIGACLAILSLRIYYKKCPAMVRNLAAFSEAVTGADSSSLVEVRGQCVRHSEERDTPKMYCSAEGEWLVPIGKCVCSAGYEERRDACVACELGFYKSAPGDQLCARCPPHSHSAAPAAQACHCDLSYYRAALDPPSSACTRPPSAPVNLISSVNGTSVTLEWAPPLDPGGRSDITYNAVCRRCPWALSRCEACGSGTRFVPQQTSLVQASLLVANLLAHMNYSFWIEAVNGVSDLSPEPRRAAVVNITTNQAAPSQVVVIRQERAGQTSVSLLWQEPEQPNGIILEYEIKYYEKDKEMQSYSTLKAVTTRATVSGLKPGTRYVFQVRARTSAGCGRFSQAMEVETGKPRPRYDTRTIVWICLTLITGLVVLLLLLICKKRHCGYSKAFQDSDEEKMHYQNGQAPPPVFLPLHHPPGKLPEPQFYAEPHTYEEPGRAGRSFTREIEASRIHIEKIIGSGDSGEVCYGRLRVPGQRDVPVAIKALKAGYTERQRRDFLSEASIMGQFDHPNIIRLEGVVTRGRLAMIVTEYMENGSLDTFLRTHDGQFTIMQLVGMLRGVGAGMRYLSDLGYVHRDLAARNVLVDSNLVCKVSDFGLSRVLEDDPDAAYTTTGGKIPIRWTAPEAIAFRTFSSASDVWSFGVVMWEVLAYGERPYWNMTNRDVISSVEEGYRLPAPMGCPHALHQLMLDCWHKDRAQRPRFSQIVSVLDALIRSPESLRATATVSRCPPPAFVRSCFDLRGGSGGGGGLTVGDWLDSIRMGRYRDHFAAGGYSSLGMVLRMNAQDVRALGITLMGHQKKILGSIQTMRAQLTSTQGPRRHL
Description: (§1) The analysis was performed by ProQinase (Freiburg, Germany).

CK1epsilon = target: T2, CK1epsilon (Homo sapiens, UniProt P49674)
T2 construct: purchased ProQinase (Freiburg, Germany)
Description: as §1

DYRK3 = target: T3, DYRK3 (Homo sapiens, UniProt O43781)
T3 construct: purchased ProQinase (Freiburg, Germany)
T3 sequence (O43781 1-588): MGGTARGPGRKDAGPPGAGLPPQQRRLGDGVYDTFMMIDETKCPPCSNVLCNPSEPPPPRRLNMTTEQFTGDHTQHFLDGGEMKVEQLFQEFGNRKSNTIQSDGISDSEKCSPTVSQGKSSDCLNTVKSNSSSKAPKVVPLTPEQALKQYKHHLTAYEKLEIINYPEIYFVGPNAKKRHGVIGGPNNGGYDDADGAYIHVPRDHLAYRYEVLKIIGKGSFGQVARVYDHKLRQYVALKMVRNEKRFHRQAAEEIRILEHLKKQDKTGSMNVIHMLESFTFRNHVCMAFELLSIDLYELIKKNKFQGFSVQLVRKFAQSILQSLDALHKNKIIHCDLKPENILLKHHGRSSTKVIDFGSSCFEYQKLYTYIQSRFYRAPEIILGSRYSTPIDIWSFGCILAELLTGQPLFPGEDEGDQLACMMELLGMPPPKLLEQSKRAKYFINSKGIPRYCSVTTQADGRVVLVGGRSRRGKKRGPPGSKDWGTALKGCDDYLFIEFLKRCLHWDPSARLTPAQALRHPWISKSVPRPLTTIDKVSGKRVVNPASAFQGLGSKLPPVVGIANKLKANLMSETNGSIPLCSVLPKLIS
Description: as §1

PLK1 = target: T4, PLK1 (Homo sapiens, UniProt P53350)
T4 construct: purchased ProQinase (Freiburg, Germany)
Description: as §1

CSK = target: T5, CSK (Homo sapiens, UniProt P41240)
T5 construct: purchased ProQinase (Freiburg, Germany)
Description: as §1

CK1delta = target: T6, CK1delta (Homo sapiens, UniProt P48730)
T6 construct: purchased ProQinase (Freiburg, Germany)
Description: as §1

DCAMKL2 = target: T7, DCAMKL2 (Homo sapiens, UniProt Q8N568)
T7 construct: purchased ProQinase (Freiburg, Germany)
T7 sequence (Q8N568 1-766): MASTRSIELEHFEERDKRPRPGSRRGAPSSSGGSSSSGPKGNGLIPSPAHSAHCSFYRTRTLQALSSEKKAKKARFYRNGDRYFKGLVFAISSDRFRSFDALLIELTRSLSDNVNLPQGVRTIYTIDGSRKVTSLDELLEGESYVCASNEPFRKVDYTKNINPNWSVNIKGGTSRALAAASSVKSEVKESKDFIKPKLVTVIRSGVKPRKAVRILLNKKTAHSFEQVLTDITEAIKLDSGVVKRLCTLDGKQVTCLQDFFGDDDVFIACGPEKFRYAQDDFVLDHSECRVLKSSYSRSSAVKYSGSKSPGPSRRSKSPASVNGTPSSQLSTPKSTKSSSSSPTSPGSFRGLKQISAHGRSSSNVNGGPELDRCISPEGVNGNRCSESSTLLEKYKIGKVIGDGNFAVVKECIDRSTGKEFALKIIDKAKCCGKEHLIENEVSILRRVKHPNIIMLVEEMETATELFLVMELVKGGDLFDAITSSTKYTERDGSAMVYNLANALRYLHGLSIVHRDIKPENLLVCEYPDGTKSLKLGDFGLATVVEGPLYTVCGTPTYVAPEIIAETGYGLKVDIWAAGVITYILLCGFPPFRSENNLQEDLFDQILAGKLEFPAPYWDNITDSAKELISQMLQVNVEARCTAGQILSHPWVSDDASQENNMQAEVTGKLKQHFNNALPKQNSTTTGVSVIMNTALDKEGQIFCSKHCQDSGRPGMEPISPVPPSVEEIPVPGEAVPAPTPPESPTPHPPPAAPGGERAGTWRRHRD
Description: as §1

MAP3K1 = target: T8, MAP3K1 (Homo sapiens, UniProt Q13233)
T8 construct: purchased ProQinase (Freiburg, Germany)
Description: as §1

DAPK3 = target: T9, DAPK3 (Homo sapiens, UniProt O43293)
T9 construct: purchased ProQinase (Freiburg, Germany)
Description: as §1

VEGFR3 = target: T10, VEGFR3 (Homo sapiens, UniProt P35916)
T10 construct: purchased ProQinase (Freiburg, Germany)
Description: as §1

T10 sequence (P35916 25-1363): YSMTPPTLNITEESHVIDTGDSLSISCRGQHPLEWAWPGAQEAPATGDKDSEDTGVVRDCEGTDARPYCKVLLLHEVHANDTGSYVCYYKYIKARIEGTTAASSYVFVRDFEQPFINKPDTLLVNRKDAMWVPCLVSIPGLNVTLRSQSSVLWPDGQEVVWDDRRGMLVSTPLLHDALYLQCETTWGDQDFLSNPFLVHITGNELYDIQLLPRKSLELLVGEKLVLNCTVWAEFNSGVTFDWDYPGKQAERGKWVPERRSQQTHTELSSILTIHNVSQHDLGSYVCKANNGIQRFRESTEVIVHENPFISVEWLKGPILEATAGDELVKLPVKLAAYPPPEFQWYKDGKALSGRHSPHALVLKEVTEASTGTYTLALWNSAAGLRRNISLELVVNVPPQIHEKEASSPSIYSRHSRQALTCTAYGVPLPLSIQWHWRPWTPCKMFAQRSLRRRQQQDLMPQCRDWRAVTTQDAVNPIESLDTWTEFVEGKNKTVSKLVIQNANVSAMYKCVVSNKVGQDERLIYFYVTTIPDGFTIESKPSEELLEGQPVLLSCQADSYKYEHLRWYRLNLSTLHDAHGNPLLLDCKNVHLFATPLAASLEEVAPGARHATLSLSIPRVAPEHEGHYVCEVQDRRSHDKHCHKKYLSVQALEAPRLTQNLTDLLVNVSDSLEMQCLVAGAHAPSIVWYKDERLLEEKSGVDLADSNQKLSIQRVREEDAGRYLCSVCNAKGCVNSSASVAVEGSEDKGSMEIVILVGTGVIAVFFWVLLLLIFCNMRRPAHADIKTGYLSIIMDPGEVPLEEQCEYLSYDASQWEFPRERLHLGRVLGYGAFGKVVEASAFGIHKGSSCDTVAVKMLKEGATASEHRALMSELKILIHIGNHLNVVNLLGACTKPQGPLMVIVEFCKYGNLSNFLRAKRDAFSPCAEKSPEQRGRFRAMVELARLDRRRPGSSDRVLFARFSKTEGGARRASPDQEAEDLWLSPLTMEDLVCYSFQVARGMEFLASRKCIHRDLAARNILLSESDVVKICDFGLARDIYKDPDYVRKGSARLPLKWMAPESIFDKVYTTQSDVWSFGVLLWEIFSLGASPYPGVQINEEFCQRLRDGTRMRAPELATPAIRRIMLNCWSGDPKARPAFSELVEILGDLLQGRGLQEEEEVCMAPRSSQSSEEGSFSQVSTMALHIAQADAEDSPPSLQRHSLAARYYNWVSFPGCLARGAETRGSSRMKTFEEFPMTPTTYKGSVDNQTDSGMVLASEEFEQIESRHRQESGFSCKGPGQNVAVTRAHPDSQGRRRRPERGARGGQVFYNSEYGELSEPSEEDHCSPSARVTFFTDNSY
T9 sequence (O43293 whole entry): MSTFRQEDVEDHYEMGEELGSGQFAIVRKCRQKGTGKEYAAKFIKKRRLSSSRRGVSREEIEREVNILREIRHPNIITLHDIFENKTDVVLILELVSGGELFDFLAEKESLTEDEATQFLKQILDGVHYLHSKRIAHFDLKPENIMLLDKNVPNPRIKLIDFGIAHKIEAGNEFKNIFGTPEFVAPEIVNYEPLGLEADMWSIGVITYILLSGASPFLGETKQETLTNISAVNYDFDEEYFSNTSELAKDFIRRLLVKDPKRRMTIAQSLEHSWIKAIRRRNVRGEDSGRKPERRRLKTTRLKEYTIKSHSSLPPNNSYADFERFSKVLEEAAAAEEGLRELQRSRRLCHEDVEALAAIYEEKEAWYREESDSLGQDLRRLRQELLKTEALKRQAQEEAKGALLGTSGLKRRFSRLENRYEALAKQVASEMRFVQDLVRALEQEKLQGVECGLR
T8 sequence (Q13233 whole entry): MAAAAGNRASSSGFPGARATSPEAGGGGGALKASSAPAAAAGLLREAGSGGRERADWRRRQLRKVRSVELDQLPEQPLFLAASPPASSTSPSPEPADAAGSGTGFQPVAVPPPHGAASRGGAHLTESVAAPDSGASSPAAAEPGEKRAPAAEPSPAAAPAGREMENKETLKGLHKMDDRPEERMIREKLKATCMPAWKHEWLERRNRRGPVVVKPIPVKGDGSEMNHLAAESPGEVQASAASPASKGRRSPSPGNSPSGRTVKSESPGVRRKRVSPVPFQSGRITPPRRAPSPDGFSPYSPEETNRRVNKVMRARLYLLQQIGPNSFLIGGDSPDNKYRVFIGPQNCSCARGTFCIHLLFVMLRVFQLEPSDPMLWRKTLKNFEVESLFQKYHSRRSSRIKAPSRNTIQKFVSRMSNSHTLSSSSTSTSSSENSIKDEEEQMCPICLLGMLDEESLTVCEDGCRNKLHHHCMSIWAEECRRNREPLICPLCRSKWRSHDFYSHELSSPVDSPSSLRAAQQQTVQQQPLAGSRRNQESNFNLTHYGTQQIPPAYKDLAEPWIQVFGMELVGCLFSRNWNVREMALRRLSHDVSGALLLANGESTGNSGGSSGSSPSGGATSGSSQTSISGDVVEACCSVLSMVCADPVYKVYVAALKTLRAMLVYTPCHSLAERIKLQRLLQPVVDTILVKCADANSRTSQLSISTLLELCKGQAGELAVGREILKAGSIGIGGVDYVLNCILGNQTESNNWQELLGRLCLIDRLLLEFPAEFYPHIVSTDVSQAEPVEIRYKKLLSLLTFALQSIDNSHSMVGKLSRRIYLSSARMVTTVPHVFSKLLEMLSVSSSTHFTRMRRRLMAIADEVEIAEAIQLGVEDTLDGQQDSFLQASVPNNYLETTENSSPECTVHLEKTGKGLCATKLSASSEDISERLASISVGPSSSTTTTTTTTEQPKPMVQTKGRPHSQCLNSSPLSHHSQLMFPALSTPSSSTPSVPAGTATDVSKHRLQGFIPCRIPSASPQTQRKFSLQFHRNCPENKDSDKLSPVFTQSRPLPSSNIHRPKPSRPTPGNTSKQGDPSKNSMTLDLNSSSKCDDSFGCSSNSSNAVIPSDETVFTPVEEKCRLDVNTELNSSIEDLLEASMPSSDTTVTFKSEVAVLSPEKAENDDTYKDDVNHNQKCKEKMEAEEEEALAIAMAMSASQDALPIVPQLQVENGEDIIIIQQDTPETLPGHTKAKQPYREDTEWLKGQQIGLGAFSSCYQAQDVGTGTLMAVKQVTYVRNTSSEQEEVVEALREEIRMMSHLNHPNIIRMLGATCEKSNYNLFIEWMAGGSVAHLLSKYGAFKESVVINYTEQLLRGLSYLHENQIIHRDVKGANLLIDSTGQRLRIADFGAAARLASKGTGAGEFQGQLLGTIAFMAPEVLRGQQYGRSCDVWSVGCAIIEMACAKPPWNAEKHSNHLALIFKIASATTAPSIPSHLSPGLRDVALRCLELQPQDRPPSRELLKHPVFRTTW
T2 sequence (P49674 whole entry): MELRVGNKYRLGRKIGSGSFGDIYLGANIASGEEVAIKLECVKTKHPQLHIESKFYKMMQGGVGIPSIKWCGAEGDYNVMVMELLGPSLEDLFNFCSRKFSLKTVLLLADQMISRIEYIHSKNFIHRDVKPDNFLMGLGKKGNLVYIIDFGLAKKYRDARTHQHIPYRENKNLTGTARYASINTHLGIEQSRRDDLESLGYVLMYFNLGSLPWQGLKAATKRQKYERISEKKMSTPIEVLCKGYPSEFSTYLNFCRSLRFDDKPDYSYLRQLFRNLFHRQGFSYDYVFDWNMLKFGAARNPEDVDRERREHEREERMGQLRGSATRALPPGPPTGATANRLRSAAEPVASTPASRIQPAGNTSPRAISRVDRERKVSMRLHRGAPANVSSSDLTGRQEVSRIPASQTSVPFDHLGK
T5 sequence (P41240 whole entry): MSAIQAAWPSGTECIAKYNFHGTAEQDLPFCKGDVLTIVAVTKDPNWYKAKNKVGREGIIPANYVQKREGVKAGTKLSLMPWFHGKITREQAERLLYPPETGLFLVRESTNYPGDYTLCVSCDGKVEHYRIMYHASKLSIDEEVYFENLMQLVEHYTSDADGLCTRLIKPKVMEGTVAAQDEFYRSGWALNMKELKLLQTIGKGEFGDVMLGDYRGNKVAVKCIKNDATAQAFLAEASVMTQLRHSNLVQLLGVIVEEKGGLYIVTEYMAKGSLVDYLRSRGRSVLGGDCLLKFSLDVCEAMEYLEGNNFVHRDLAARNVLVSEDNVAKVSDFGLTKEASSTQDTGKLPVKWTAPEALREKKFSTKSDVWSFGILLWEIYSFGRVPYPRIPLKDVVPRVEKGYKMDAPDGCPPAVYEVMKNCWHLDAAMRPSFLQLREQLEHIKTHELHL
T6 sequence (P48730 whole entry): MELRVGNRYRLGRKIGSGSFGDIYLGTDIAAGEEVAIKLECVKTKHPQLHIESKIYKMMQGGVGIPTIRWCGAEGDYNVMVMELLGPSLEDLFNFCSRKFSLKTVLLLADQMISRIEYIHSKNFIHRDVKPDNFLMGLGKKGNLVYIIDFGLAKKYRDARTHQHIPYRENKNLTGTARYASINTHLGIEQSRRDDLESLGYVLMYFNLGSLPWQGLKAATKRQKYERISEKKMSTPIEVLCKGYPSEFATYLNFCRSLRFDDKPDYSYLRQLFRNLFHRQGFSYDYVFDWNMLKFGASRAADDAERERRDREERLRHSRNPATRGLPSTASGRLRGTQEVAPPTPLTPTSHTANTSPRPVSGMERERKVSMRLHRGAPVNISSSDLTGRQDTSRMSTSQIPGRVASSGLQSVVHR

SMILES	Residual activity (EPHA8; 1.0E-05 M)	Residual activity (EPHA8; 1.0E-06 M)	Residual activity (CK1epsilon; 1.0E-05 M)	Residual activity (CK1epsilon; 1.0E-06 M)	Residual activity (DYRK3; 1.0E-05 M)	Residual activity (DYRK3; 1.0E-06 M)	Residual activity (PLK1; 1.0E-05 M)	Residual activity (PLK1; 1.0E-06 M)	Residual activity (CSK; 1.0E-05 M)	Residual activity (CSK; 1.0E-06 M)	Residual activity (CK1delta; 1.0E-05 M)	Residual activity (CK1delta; 1.0E-06 M)	Residual activity (DCAMKL2; 1.0E-05 M)	Residual activity (DCAMKL2; 1.0E-06 M)	Residual activity (MAP3K1; 1.0E-05 M)	Residual activity (MAP3K1; 1.0E-06 M)	Residual activity (DAPK3; 1.0E-05 M)	Residual activity (DAPK3; 1.0E-06 M)	Residual activity (VEGFR3; 1.0E-05 M)	Residual activity (VEGFR3; 1.0E-06 M)	also measured
O=C(Cc1ccccc1)Nc1ccc(F)c(Nc2ccc3c(c2)CCCCC3=O)c1 [Compound 100]	91 % of control	98 % of control	117 % of control	107 % of control	104 % of control	98 % of control	90 % of control	103 % of control	96 % of control	106 % of control	106 % of control	110 % of control	89 % of control	101 % of control	83 % of control	96 % of control	119 % of control	105 % of control	84 % of control	108 % of control	–
O=C(Nc1ccc(F)c(Nc2ccc3c(c2)CCCCC3=O)c1)c1cccc(F)c1 [Compound 109]	91 % of control	110 % of control	15 % of control	52 % of control	88 % of control	96 % of control	96 % of control	94 % of control	109 % of control	112 % of control	15 % of control	23 % of control	103 % of control	100 % of control	93 % of control	96 % of control	107 % of control	108 % of control	88 % of control	105 % of control	inhibition at 10 µM (CK1epsilon; 10 µM, read-out: inhibition of CK1-ε): ≥ 50%; inhibition at 1 µM (CK1delta; 1 µM, read-out: inhibition of CK1-δ): ≥ 50%; inhibition at 10 µM (CK1delta; 10 µM, read-out: inhibition of CK1-δ): ≥ 50%
